Measurements as given in article PMC4747952, “Development of TASP0410457 (TASP457), a novel dihydroquinolinone derivative as a PET radioligand for central histamine H3 receptors” (EJNMMI Research, 2016).

What was measured:
H3R = target: T1, H3R (Rattus norvegicus, UniProt Q9QYN8); experiment: PET imaging of rat brains; format: in vivo; conditions: for cerebellar SUV at 15 min after radioligand injection: mean ± S.D.
T1 construct: from tissue; host or cells: brain of living Sprague-Dawley rats
Experimental: Six-week-old male Sprague-Dawley rats were purchased from Japan SLC (Shizuoka, Japan). PET scans were performed using a microPET Focus 220 small-animal scanner (Siemens Medical Solutions USA, Knoxville, TN). The rats were anesthetized with 1.5–2 % isoflurane during the imaging session, while their heart rate and blood oxygen saturation were monitored by pulse oximeter (CANL-425SVA; Med Associates, St. Albans, VT). Body temperature was kept at 37 °C with a heating pad (BWT-100; Bio Research Center, Aichi, Japan). Following the transmission scans for attenuation correction using a ^68Ge-^68Ga point source, emission scans were performed for 90 min in 3D list-mode with an energy window of 350–750 keV, immediately after the intravenous injection of each radioligand. Mean ± S.D. of the injected radioactivity of [^11C]TASP0410457, [^11C]TASP0434988, and [^11C]TASP0390136 was 119 ± 26 MBq, 132 ± 34 MBq, and 124 ± 17 MBq, respectively (n = 3–5). Mean ± S.D. of the mass doses of [^11C]TASP0410457, [^11C]TASP0434988, and [^11C]TASP0390136 was 2.4 ± 1.2 μg/kg, 1.9 ± 0.4 μg/kg, and 4.2 ± 1.6 μg/kg, respectively (n = 3–5).
To assess the specificity of radioligand binding, thioperamide was injected intravenously at a dose of 10 mg/kg at 30 s before the injection of each radioligand.
All list-mode data were sorted into 3D sinograms, which were then Fourier rebinned into 2D sinograms (frames: 1 min × 4, 2 min × 8 and 5 min × 14). Images were reconstructed using 2D-filtered back-projection with a 0.5-mm Hanning filter.
PET image and magnetic resonance imaging (MRI) template were co-registered using PMOD software (PMOD version 3.206; Zurich, Switzerland) according to the following procedure as in our previous works: Outline of the whole brain and positions of eyes in PET images at an early phase of the scan were initially matched to those in MRI images, and then further translations and rotations of PET images were manually performed for fine alignments. Finally, parameters for the co-registration were applied to the entire dynamic PET data. Regions of interest (ROIs) were placed on the striatum, hippocampus, and cerebellum using PMOD software with reference to the MRI template as described elsewhere. The tissue time-activity curves (TACs) for these ROIs were generated by calculating the SUV for each time frame as follows: SUV=radioactivityBq/g×bodyweightg/injectedradiotracerdoseBq
The binding potentials relative to the non-displaceable uptake (BPND) in the striatum and hippocampus were estimated using the simplified reference tissue model (SRTM) with PMOD software using the cerebellum as a reference region, as the rat cerebellum is devoid of H3R [26].

[1] = Radiochemical stability in the final formulation; format: physicochemical; conditions: at 1 h after the end of radiosynthesis
Experimental: [^11C]TASP0390136, [^11C]TASP0410457, and [^11C]TASP0434988 were synthesized as shown in Fig. 1a–c (detailed procedures are described in Additional file 1: Supplemental methods) using a homemade automated synthesis system. The radiochemical purities and specific activities of the radioligands, which were analyzed as described in Additional file 1: Supplemental Methods, along with their radiochemical yields and average synthesis times, are summarized in Table 1. Analytical HPLC chromatogram of each radioligand is shown in Additional file 2-4: Figures S1-S3. The radiochemical stabilities of [^11C]TASP0410457 and [^11C]TASP0434988 in the final formulation were >99 % at 1 h and 40 min, respectively, after the end of radiosynthesis.

H3Rs [2] = target: T2, H3Rs (Rattus norvegicus, UniProt Q9QYN8); experiment: In vitro autoradiography, rat brain sections; format: binding; conditions: 5 nM radioligand
T2 construct: from tissue; host or cells: sagittal rat brain sections
Experimental: (§1) Twenty-micrometer-thick sagittal rat and monkey brain sections were incubated in an autoradiography buffer containing 5 nM [^11C]TASP0410457 as described in Additional file 1: Supplemental methods. The binding was also performed in the presence of 10 μM of unlabeled TASP0410457, thioperamide, or ciproxifan for the rat sections and 10 μM of TASP0410457 or ciproxifan for the monkey sections to assess the specific radioligand binding.
(§2) (25:75) at a flow rate of 1 mL/min. A representative chromatogram of [11C]TASP0390136 is shown in […]
(§3) Twenty-micrometer-thick sagittal rat brain sections were pre-incubated with autoradiography buffer (50 mM Tris containing 120 mM NaCl, 2 mM KCl, 1 mM MgCl2, and 1 mM CaCl2, pH7.4) for 30 min, then incubated in the autoradiography buffer containing 5 nM [11C]TASP0410457 at 25°C for 1 h. The sections were washed two times with ice-cold autoradiography buffer for 5 min, rinsed with ice-cold water for 10 s, and then quickly dried. The radioactivity retained on the sections was determined using a BAS imaging plate and the BAS5000 system (GE Healthcare, Piscataway, NJ). For a blocking study, brain slices were reacted with [11C]TASP0410457 in the presence of […] of TASP0410457, thioperamide, or ciproxifan.
(§4) Similarly, autoradiography using […] sagittal rhesus monkey brain sections was conducted. […]

H3Rs [3] = experiment: In vitro autoradiography, monkey brain sections; format: binding, rhesus monkey; conditions: in the presence of 10 μM of unlabelled TASP0410457 or ciproxifan
Experimental: as §1, §2, §3, §4

[4] = SRTM, cerebellum as reference region

T1 sequence (Q9QYN8 whole entry): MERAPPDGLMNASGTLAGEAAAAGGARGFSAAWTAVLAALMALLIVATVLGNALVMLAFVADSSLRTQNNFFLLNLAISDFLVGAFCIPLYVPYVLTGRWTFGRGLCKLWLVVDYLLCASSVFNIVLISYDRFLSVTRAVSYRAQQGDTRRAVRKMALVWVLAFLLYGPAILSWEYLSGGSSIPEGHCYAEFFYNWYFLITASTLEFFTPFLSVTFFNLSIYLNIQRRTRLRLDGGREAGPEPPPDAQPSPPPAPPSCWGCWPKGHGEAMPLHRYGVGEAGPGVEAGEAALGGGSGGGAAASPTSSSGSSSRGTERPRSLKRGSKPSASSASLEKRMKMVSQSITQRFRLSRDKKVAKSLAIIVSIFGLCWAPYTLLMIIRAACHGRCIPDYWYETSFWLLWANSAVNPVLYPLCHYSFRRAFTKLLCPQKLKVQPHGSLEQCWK
T2 sequence (Q9QYN8 whole entry): as above

BPND, Hippocampus (H3R; [4]): 0.53 ± 0.06 | BPND, Striatum (H3R; [4]): 1.26 ± 0.12 | cerebellar SUV at 15 min after radioligand injection (H3R; baseline): 0.64 ± 0.13 | peak SUV, cerebellum (H3R; bolus intravenous, baseline): ~1.2 | peak SUV, hippocampus (H3R; bolus intravenous, baseline): around 1.5 | peak SUV, striatum (H3R; bolus intravenous, baseline): ~2.0 | time for specific binding to reach a pseudo-equilibrium state (H3R; target-to-reference ratios, after intravenous injection): ≤ 15 min | cerebellar SUV at 15 min after radioligand injection (H3R; thioperamide predosing 10 mg/kg): 0.47 ± 0.09 | radiochemical stability in the final formulation [1]: > 99% | binding in the monkey cerebellum and brainstem under blockade (H3Rs [3]): noticeably decreased
Compound: [11CH3]Oc1ccc(N2C(=O)CCc3cc(OC4CCN(C5CCC5)CC4)ccc32)cn1 [[^11C]TASP0410457]
autoradiographic binding in rat brain sections (H3Rs [2]): abundant specific binding in the striatum and neocortex
